Test results: patent EP3807270B1, “NOVEL HETEROARYL HETEROCYCLYL COMPOUNDS FOR THE TREATMENT OF AUTOIMMUNE DISEASE” (F. Hoffmann-La Roche AG, priority 2018, dated 2019)

How the values were obtained:
human TLR8 = biological target: T1, human TLR8 (Homo sapiens, UniProt Q9NR97); assay: HEK293-Blue-hTLR-8 cells assay (SEAP reporter, R848 stimulation); type: cell-based; details: HEK293-Blue-hTLR8 cells, R848, 20 hrs; read-out: HEK/hTLR8 IC50
T1 construct: host or cells: HEK293 (HEK-Blue)
T1 sequence (Q9NR97 27-1041): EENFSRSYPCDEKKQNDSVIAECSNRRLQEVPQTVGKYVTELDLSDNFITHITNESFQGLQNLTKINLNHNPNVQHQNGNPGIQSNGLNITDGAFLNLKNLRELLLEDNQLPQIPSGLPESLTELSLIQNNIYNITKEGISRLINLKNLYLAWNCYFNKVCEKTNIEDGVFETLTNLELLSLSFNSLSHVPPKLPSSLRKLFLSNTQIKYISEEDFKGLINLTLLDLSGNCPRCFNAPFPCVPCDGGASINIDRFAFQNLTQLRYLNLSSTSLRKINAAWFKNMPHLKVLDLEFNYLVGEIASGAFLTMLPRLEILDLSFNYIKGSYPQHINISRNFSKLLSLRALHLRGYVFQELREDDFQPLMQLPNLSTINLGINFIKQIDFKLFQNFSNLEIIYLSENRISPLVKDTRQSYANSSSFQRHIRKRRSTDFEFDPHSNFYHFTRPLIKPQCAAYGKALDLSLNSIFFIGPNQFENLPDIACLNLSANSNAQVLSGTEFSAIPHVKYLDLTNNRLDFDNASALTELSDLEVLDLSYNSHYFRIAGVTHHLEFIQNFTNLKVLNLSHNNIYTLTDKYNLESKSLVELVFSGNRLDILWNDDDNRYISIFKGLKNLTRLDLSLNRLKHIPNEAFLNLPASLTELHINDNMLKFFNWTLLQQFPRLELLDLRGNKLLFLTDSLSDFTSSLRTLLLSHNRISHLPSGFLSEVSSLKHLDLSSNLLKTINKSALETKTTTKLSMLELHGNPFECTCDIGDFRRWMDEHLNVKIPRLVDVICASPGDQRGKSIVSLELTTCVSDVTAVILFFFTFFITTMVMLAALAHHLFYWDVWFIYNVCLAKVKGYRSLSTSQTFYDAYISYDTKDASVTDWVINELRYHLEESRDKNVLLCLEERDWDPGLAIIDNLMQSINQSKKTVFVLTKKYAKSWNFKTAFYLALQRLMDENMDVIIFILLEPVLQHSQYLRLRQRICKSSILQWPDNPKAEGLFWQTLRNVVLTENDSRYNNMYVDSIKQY
Description: A stable HEK293-Blue-hTLR-8 cell line was purchased from InvivoGen (Cat.#: hkb-htlr8, San Diego, California, USA). These cells were originally designed for studying the stimulation of human TLR8 by monitoring the activation of NF-κB. A SEAP (secreted embryonic alkaline phosphatase) reporter gene was placed under the control of the IFN-β minimal promoter fused to five NF-κB and AP-1-binding sites. The SEAP was induced by activating NF-κB and AP-1 via stimulating HEK-Blue hTLR8 cells with TLR8 ligands. Therefore, the reporter expression was declined by TLR8 antagonist under the stimulation of a ligand, such as R848, for incubation of 20 hrs. The cell culture supernatant SEAP reporter activity was determined using QUANTI-Blue™ kit (Cat.#: rep-qb1, Invivogen, San Diego, Ca, USA) at a wavelength of 640 nm, a detection medium that turns purple or blue in the presence of alkaline phosphatase.
HEK293-Blue-hTLR8 cells were incubated at a density of 250,000-450,000 cells/mL in a volume of 170 µL in a 96-well plate in Dulbecco's Modified Eagle's medium (DMEM) containing 4.5 g/L glucose, 50 U/mL penicillin, […], […], 2 mM L-glutamine, 10% (v/v) heat-inactivated fetal bovine serum with addition of 20 µL test compound in a serial dilution in the presence of final DMSO at 1% and 10 µL of 60uM R848 in above DMEM, perform incubation under 37 °C in a CO2 incubator for 20 hrs. Then 20 µL of the supernatant from each well was incubated with 180 µL Quanti-blue substrate solution at 37°C for 2 hrs and the absorbance was read at 620-655 nm using a spectrophotometer. The signaling pathway that TLR8 activation leads to downstream NF-κB activation has been widely accepted, and therefore similar reporter assay was modified for evaluating TLR8 antagonist.

CYP2D6 = biological target: T2, CYP2D6 (Homo sapiens, UniProt P10635); assay: CYP inhibition assay in human liver microsome; type: in vitro ADME; details: human liver microsomes, probe dextromethorphan, 10µM test compound, dextromethorphan substrate, <0: not or weak inhibitor, read-out: CYP 2D6 inhibition %@10µM
T2 construct: tissue BD-Gentest 452117; host or cells: human liver microsomes
T2 sequence (P10635 whole entry): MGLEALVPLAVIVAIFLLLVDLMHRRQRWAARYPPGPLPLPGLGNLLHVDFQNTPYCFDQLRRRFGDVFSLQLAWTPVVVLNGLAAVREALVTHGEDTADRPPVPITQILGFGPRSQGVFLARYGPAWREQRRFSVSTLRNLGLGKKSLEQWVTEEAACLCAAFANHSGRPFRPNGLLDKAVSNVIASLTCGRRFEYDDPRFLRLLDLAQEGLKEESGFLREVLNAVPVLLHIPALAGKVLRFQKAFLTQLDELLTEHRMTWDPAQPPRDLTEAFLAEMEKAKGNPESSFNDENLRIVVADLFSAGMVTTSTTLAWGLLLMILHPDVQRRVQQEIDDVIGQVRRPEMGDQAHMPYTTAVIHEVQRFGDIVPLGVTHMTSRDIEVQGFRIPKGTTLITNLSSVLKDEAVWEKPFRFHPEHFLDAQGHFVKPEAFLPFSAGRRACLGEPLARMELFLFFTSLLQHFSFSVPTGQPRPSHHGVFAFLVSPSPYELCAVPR
Procedure: This is a high throughput screening assay used for assessment of reversible inhibition of CYP2D6 activity of test compounds in human liver microsome (HLM) in early discovery stage. Table 4. Chemicals and materials used in the CYP inhibition assay
10 mM DMSO stock solutions of test compounds were diluted in DMSO to generate 2 mM intermediate stock solution. 250 nL of intermediate stock solution were transferred in duplicate into 3 separate 384 well microtitre plates (assay-ready plates). A mixture of HLM and each substrate was made up. 45 µL of HLM substrate mix was then transferred to each well of an assay ready plate and mixed. The negative (solvent) and positive control (standard inhibitor for CYP 2D6) were included in each assay ready plate. The assay ready plate was warmed to 37 °C in an incubator over 10 minutes. 5 µL pre-warmed NADPH regenerating system was added to each incubation well to start the reaction. Final incubation volume was 50 µL. The assay plate then was placed back in the 37 °C incubator. After 10-minute incubation, incubates were quenched by addition of 50 µL 100% acetonitrile containing internal standards (20 ng/mL D3-Dextrorphan). The supernatants were collected for RapidFire/MS/MS analysis.
RapidFire online solid phase extraction/sample injection system (Agilent) coupled with API4000 triple quadrupole mass spectrometer (AB Sciex) were used for sample analysis. The mobile phase composed of acetonitrile and water supplemented with 0.1% formic acid. A C4 solid phase extraction cartridge is used for sample separation. MS detection is achieved in positive ion MRM mode.
Peak areas for substrate, metabolite and internal standard are determined using the RapidFire integrator software (version 3.6.12009.12296). Peak area ratios (PAR) of metabolite and internal standard (stable-labelled metabolite) are then calculated. The measurement window for each experiment is then defined: • PAR (0% activity)= average PAR for all incubations containing concentrated inhibitor; • Par (100% activity)= average PAR for all incubations containing no inhibitor (DMSO controls); • % Activity (test inhibitor) • =[PAR(test inhibitor)-PAR(0% activity)]/[PAR(100% activity)-PAR(0% activity)]; • % Inhibition (test inhibitor)=100-% Activity (test inhibitor).

Structure (SMILES) | IC50 (human TLR8) | inhibition at 10 min, 10 µM (CYP2D6)
C[C@@H]1CN(c2ccc(C#N)c3nccnc23)C[C@H](CN2CCN(c3ccc4c(n3)CN[C@H]4C)CC2)O1 (single isomer, unassigned) [Example 78] | 2 nM | 0.5%
C[C@@H]1CN(c2ccc(C#N)c3nccnc23)C[C@H](CN2CCN(c3ccc4c(n3)CN[C@@H]4C)CC2)O1 (single isomer, unassigned) [Example 79] | 2 nM | 5.5%
C[C@@H]1CN(c2ccc(C#N)c3nccnc23)C[C@H](CN2CCN(c3cc4c(cn3)C[C@H](C)NC4)CC2)O1 (single isomer, unassigned) [Example 81] | 3 nM | 3.5%
C[C@@H]1Cc2cc(N3CCN(C[C@H]4CN(c5ccc(C#N)c6nccnc56)C[C@@H](C)O4)CC3)ncc2CN1 (single isomer, unassigned) [Example 83] | 2 nM | -8%
C[C@@H]1CN(c2ccc(C#N)c3nccnc23)C[C@H](CN2CCN(c3cc4c(cn3)CN[C@@H](C)C4)CC2)O1 (single isomer, unassigned) [Example 84] | 2 nM | -1.5%
C[C@@H]1CN(c2ccc(C#N)c3ncccc23)C[C@H](CN2CC3[C@H](C2)OCCN3c2ccc3c(n2)CCNC3)O1 (stereo in doubt) [Example 53, cis-5-[(2R,6S)-2-methyl-6-[[4-(5,6,7,8-tetrahydro-1,6-naphthyridin-2-yl)-2,3,4a,5,7,7a-hexahydropyrrolo[3,4-b][1,4]oxazin-6-yl]methyl]morpholin-4-yl]quinoline-8-carbonitrile] | 21 nM | 24%
C[C@@H]1CN(c2ccc(C#N)c3ncccc23)C[C@H](CN2CCN(c3cccc4c3CNC4)CC2)O1 [Example 2, 5-[(2S,6R)-2-[(4-isoindolin-4-ylpiperazin-1-yl)methyl]-6-methyl-morpholin-4-yl] quinoline-8-carbonitrile] | 8 nM | -5%
C[C@@H]1CN(c2ccc(C#N)c3ncccc23)C[C@H](CN2CCN(c3ccc4c(c3)CCNC4)CC2)O1 [Example 5, 5-[(2R,6S)-2-methyl-6-[[4-(1,2,3,4-tetrahydroisoquinolin-6-yl)piperazin-1-yl]methyl]morpholin-4-yl]quinoline-8-carbonitrile] | 20 nM | 0.5%
C[C@@H]1CN(c2ccc(C#N)c3ncccc23)C[C@H](CN2CCN(c3ccc4c(c3)CNC4)CC2)O1 [Example 7, 5-[(2S,6R)-2-[(4-isoindolin-5-ylpiperazin-1-yl)methyl]-6-methyl-morpholin-4-yl] quinoline-8-carbonitrile] | 30 nM | 15%
C[C@@H]1CN(c2ccc(C#N)c3ncsc23)C[C@H](CN2CCN(c3cnc4c(c3)CNC4)CC2)O1 [Example 8, 7-[(2S,6R)-2-[[4-(6,7-dihydro-5H-pyrrolo[3,4-b]pyridin-3-yl)piperazin-1-yl]methyl]-6-methyl-morpholin-4-yl]-1,3-benzothiazole-4-carbonitrile] | < 3 nM | 13%
C[C@@H]1CN(c2ccc(C#N)c3ncccc23)C[C@H](CN2CCN(c3ncc4c(n3)CNC4)CC2)O1 [Example 11, 5-[(2S,6R)-2-[[4-(6,7-dihydro-5Hpyrrolo[3,4-d]pyrimidin-2-yl)piperazin-1-yl]methyl]-6-methyl-morpholin-4-yl]quinoline-8-carbonitrile] | 8 nM | 19%
C[C@@H]1CN(c2ccc(C#N)c3ncccc23)C[C@H](CN2CCN(c3ccc4c(n3)CCNC4)CC2)O1 [Example 14, 5-[(2R,6S)-2-methyl-6-[[4-(5,6,7,8-tetrahydro-1,6-naphthyridin-2-yl)piperazin-1-yl]methyl]morpholin-4-yl]quinoline-8-carbonitrile] | 4 nM | -6%
C[C@@H]1CN(c2ccc(C#N)c3ncccc23)C[C@H](CN2CCN(c3ccc4c(c3)CN(CCO)C4)CC2)O1 [Example 16, 5-[(2S,6R)-2-[[4-[2-(2-hydroxyethyl)isoindolin-5-yl]piperazin-1-yl]methyl]-6-methyl-morpholin-4-yl]quinoline-8-carbonitrile] | 10 nM | 2.5%
C[C@@H]1CN(c2ccc(C#N)c3ncccc23)C[C@H](CN2CCN(c3cnc4c(n3)CCNC4)CC2)O1 [Example 17, 5-[(2R,6S)-2-methyl-6-[[4-(5,6,7,8-tetrahydropyrido[3,4-b]pyrazin-2-yl)piperazin-1-yl]methyl]morpholin-4-yl]quinoline-8-carbonitrile] | 4 nM | 4.5%
C[C@@H]1CN(c2ccc(C#N)c3ncccc23)C[C@H](CN2CCN(c3cc4c(cn3)CNC4)CC2)O1 [Example 18, 5-[(2S,6R)-2-[[4-(2,3-dihydro-1H-pyrrolo[3,4-c]pyridin-6-yl)piperazin-1-yl]methyl]-6-methyl-morpholin-4-yl] quinoline-8-carbonitrile] | 9 nM | 13%
C[C@@H]1CN(c2ccc(C#N)c3ncccc23)C[C@H](CN2CCN(c3cc4c(cn3)CNCC4)CC2)O1 [Example 19, 5-[(2R,6S)-2-methyl-6-[[4-(5,6,7,8-tetrahydro-2,7-naphthyridin-3-yl)piperazin-1-yl]methyl]morpholin-4-yl]quinoline-8-carbonitrile] | 4 nM | 7.5%
C[C@@H]1CN(c2ccc(C#N)c3ncccc23)C[C@H](CN2CCN(c3cc4c(cn3)CCNC4)CC2)O1 [Example 20, 5-[(2R,6S)-2-methyl-6-[[4-(5,6,7,8-tetrahydro-2,6-naphthyridin-3-yl)piperazin-1-yl]methyl]morpholin-4-yl]quinoline-8-carbonitrile] | 6 nM | -5.5%
